Article PMC10401862, “A high-throughput dual system to screen polyphosphate kinase mutants for efficient ATP regeneration in L-theanine biocatalysis” (Biotechnology for Biofuels and Bioproducts, 2023)

Legend:
Type in all cases: biochemical
EbPPK = molecular target: T1, EbPPK (Erysipelotrichaceae bacterium, UniProt P0DY74); assay: coupled hexokinase / G6PD assay, […] nm; conditions: 100 mM Tris-HCl pH 8.0, 35 °C
T1 construct: gene DHS57_05705; synthesized gene expressed in E. coli BL21(DE3) from pXMJ-19, Ni-NTA purified
T1 sequence (P0DY74 1-298): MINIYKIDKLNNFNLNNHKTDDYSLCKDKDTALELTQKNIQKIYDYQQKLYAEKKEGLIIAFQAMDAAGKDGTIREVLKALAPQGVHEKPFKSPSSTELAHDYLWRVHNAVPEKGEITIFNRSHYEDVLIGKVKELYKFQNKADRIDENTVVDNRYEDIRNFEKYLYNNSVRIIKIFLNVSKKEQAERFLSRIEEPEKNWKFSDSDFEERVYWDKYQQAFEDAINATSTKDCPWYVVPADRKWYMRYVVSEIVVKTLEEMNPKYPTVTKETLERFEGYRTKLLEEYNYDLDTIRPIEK

PaPPK2II = molecular target: T2, PaPPK2II (Pseudomonas aeruginosa, UniProt Q9I154); assay: coupled hexokinase / G6PD assay, […] nm; conditions: 100 mM Tris-HCl pH 8.0, 35 °C, 10 mM ADP, 50 mM polyP6, 25 mM MgCl2
T2 construct: gene PA2428; expressed in E. coli BL21(DE3) from pET-28a, Ni-NTA purified
T2 sequence (Q9I154 1-304): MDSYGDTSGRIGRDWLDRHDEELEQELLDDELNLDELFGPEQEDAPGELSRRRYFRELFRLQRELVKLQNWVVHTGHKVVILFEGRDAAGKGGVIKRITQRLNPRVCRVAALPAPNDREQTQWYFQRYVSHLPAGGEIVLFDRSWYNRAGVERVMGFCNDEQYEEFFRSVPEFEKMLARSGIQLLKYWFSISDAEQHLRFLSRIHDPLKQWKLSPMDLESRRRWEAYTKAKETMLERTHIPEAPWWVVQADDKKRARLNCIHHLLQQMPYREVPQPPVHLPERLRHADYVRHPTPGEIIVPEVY

PaPPK2III = molecular target: T3, PaPPK2III (Pseudomonas aeruginosa, UniProt Q9HYF1); assay: coupled hexokinase / G6PD assay, […] nm; conditions: 100 mM Tris-HCl pH 8.0, 35 °C, 10 mM ADP, 50 mM polyP6, 25 mM MgCl2
T3 construct: gene PA3455; expressed in E. coli BL21(DE3) from pET-28a, Ni-NTA purified
T3 sequence (Q9HYF1 1-496): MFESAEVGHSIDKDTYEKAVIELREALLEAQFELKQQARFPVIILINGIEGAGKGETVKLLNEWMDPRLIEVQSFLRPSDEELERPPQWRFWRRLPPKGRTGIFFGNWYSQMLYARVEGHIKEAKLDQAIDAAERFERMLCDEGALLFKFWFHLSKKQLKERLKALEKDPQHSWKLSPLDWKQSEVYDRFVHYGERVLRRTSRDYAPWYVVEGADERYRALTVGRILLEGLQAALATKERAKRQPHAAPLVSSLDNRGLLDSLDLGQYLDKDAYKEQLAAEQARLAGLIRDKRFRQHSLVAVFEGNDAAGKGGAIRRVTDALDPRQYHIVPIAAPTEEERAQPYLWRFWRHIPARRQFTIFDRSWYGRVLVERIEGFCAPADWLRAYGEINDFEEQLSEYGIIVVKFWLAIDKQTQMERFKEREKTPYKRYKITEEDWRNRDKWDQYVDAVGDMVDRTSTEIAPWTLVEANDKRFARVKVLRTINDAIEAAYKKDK

GS = molecular target: T4, GS (Corynebacterium glutamicum, UniProt H7C697); assay: L-glutamine production, HPLC with OPA derivatization; conditions: Tris-HCl pH 8.0, 37 °C, 100 mM (NH4)2SO4, 150 mM ATP, 50 mM MgCl2
T4 construct: gene glnA; expressed in E. coli BL21(DE3), Ni-NTA purified
T4 sequence (H7C697 1-477): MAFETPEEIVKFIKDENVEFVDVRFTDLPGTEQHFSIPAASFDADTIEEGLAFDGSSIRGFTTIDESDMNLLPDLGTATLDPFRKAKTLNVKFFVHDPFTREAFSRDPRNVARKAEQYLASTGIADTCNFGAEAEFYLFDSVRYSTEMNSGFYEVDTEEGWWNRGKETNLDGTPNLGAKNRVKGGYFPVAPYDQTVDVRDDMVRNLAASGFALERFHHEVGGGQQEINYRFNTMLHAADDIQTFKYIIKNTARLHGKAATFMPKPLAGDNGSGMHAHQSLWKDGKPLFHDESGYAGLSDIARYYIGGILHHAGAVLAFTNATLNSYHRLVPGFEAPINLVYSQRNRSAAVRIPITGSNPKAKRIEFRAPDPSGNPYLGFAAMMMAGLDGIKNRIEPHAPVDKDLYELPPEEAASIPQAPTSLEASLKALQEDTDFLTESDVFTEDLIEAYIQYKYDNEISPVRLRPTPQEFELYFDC

ChPPK [1] = molecular target: T5, ChPPK (Cytophaga hutchinsonii, UniProt A0A6N4SMB5, D82N); assay: coupled hexokinase / G6PD assay, […] nm, double reciprocal plot; conditions: 100 mM Tris-HCl pH 8.0, 35 °C, MgCl2; polyP6 1 to 7.5 mM, ADP as co-substrate
T5 construct: gene CHU_0107; synthesized gene expressed in E. coli BL21(DE3) from pXMJ-19, Ni-NTA purified
T5 sequence (A0A6N4SMB5 entry or part of it D82N): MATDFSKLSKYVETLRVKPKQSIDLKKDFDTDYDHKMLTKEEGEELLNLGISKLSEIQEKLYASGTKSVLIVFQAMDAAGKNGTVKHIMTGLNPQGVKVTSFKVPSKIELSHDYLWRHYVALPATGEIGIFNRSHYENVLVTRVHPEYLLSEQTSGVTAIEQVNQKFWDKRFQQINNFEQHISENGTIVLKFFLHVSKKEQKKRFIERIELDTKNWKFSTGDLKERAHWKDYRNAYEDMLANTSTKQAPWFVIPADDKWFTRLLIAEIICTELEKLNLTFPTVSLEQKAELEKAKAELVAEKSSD

ChPPK [2] = molecular target: T6, ChPPK (Cytophaga hutchinsonii, UniProt A0A6N4SMB5, K103E); assay: as above; conditions: 100 mM Tris-HCl pH 8.0, 35 °C, MgCl2; polyP6 1 to 7.5 mM, ADP as co-substrate
T6 construct: gene CHU_0107; synthesized gene expressed in E. coli BL21(DE3) from pXMJ-19, Ni-NTA purified
T6 sequence (A0A6N4SMB5 entry or part of it K103E): as the sequence (A0A6N4SMB5 entry or part of it D82N) above, with N82D, K103E counted along it

ChPPK [3] = molecular target: T7, ChPPK (Cytophaga hutchinsonii, UniProt A0A6N4SMB5); assay: as above; conditions: 100 mM Tris-HCl pH 8.0, 35 °C, MgCl2; polyP6 1 to 7.5 mM, ADP as co-substrate
T7 construct: gene CHU_0107; synthesized gene expressed in E. coli BL21(DE3) from pXMJ-19, Ni-NTA purified
T7 sequence (A0A6N4SMB5 1-305): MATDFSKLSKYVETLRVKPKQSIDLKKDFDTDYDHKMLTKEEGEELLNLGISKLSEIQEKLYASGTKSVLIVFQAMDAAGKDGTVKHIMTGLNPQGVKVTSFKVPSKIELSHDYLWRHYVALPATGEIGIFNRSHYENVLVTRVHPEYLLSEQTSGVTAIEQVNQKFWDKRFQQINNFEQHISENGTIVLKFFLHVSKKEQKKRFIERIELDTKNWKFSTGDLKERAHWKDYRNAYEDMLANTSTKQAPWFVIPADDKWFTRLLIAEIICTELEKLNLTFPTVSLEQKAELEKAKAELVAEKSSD

Question: How did the “coupled hexokinase / G6PD assay, 340 nm” value (EbPPK; 10 mM ADP, 50 mM polyP6, 25 mM MgCl2) turn out when `Nc1ncnc2c1ncn2[C@@H]1O[C@H](COP(=O)(O)OP(=O)(O)O)[C@@H](O)[C@H]1O` [ADP] was run?
Answer: polyP3, polyP6 and polyPn were carried out to show the specific activities

Question: And the “coupled hexokinase / G6PD assay, 340 nm” value (PaPPK2II)?
Answer: the specific activities of the seven PPK enzymes

Question: And the “coupled hexokinase / G6PD assay, 340 nm” value (PaPPK2III)?
Answer: the specific activities of the seven PPK enzymes

Question: For `Nc1ncnc2c1ncn2[C@@H]1O[C@H](COP(=O)(O)O)[C@@H](O)[C@H]1O` [AMP], which “coupled hexokinase / G6PD assay, 340 nm” value (EbPPK; 10 mM AMP, polyP6, 25 mM MgCl2) is on record?
Answer: EbPPK was capable of the best catalytic efficiency for converting AMP

Question: `N[C@@H](CCC(=O)O)C(=O)O` [L-glutamate] was tested. Which “L-glutamine production, HPLC with OPA derivatization” value (GS) did it give?
Answer: We performed glutamine production from glutamate with GS enzyme

Question: How did the Km (ChPPK [1]) turn out when polyP6 was run?
Answer: 2120 ± 10 µM

Question: What about the Km (ChPPK [2]) of the same compound?
Answer: 2240 ± 20 µM

Question: What about the Km (ChPPK [3]) of the same compound?
Answer: 2300 ± 20 µM
